The text below walks through data of patent US10799540B2, “Faecalibacterium longum and application thereof” (BGI SHENZHEN, priority 2016, dated 2020).

The structures appear in SMILES notation. Marks after values point to notes of the source that are not given here.

Experiment [1] relates to T2D model mice. Description: Body weight change of T2D model mice treated by gavage for 2 months. The class given is in vivo, C57bL/6 mice. Particulars: intragastric treatment.
In experiment [2] the test system is T2D model mice. Description: Serum blood lipids in T2D model mice at end of experiment. Particulars: after 2 months of treatment.
The test system of experiment [3] is T2D model mice. Description: Fasting blood glucose (FBG) in T2D model mice. The class given is in vivo, C57bL/6 mice.
For experiment [4], the system named is T2D model mice. Description: Glucose tolerance (OGTT) in T2D model mice. Type of experiment: in vivo, C57bL/6 mice. The following applies: before sacrifice.

In the case of `CN(C)C(=N)N=C(N)N` [Metformin, metformin], the body weight is 21.54 g with T2D model mice [1] (1 week); 23.42 g in the experiment on T2D model mice [1] (3 weeks); 25.23 g in the experiment on T2D model mice [1] (5 weeks); 26.6 g in the experiment on T2D model mice [1] (7 weeks); 27.49* g in the experiment with T2D model mice [1] (9 weeks). Also, the “HDLC (high-density lipoprotein)” value in the experiment on T2D model mice [2] is 3.023* mmol/L. Further, in the experiment on T2D model mice [2], the “LDLC (low density lipoprotein)” value was 1.533* mmol/L. Moreover, the “TC (total cholesterol)” value with T2D model mice [2] is 5.923 mmol/L. In addition, the “TG (triglyceride)” value in the experiment with T2D model mice [2] amounted to 1.565 mmol/L. For the same molecule, the fasting blood glucose in the experiment on T2D model mice [3] (week five) is given as 14.6 mmol/L; in the experiment with T2D model mice [3] (week nine) it was 9.8** mmol/L; with T2D model mice [3] (week one), 16.7 mmol/L; in the experiment with T2D model mice [3] (week seven) it was 12.1* mmol/L; in the experiment with T2D model mice [3] (week three), 15.8 mmol/L. Also, the “blood glucose in glucose tolerance test (OGTT)” value is 9.2 mmol/L with T2D model mice [4] (0 min after glucose gavage); 19.5 mmol/L in the experiment on T2D model mice [4] (30 min after glucose gavage); 16.1 mmol/L in the experiment with T2D model mice [4] (60 min after glucose gavage); 10.9* mmol/L in the experiment with T2D model mice [4] (90 min after glucose gavage); 10.1* mmol/L in the experiment with T2D model mice [4] (120 min after glucose gavage); 9.8 mmol/L with T2D model mice [4] (120 min after glucose gavage, listed as metformin).
